US20100267561A1, “HERBICIDAL PYRIDAZINONE DERIVATIVES” (priority 2007, published 2010)
Read-outs that look alike come from different tables or passages of the source.

Key:
Format in all cases: in vivo
[1] = test system: blackgrass (Alopecurus myosuroides); experiment: Test C pre-/postemergence plant response
How it was run: (§1)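 Visual rating vs untreated controls, 0 (no effect) to 100 (complete control), after 15–25 days in a controlled growth environment. Pre- and postemergence treatments; post plants at 1- to 4-leaf stage, 2–18 cm. Formulation: non-phytotoxic solvent mix plus surfactant.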

[2] = test system: winter wheat (Triticum aestivum); experiment: Test C pre-/postemergence plant response
How it was run: as §1

[3] = test system: canarygrass (Phalaris minor); experiment: Test C pre-/postemergence plant response
How it was run: as §1

[4] = test system: downy bromegrass (Bromus tectorum); experiment: Test C pre-/postemergence plant response
How it was run: as §1

[5] = test system: green foxtail (Setaria viridis); experiment: Test C pre-/postemergence plant response
How it was run: as §1

wild oat (Avena fatua) = experiment: Test C pre-/postemergence plant response
How it was run: as §1

[6] = test system: spring barley (Hordeum vulgare); experiment: Test C pre-/postemergence plant response
How it was run: as §1

[7] = test system: annual bluegrass (Poa annua); experiment: Test C pre-/postemergence plant response
How it was run: as §1

[8] = test system: pigweed (Amaranthus retroflexus); experiment: Test C pre-/postemergence plant response
How it was run: as §1

[9] = test system: wild mustard (Sinapis arvensis); experiment: Test C pre-/postemergence plant response
How it was run: as §1

[10] = test system: windgrass (Apera spica-venti); experiment: Test C pre-/postemergence plant response
How it was run: as §1

[11] = test system: johnsongrass (Sorghum halepense); experiment: Test B pre-/postemergence plant response; settings: Sorghum halepense, read-out: Plant response rating, Johnsongrass; for pest or weed control at 16 g/ha: 16 g ai/ha; for pest or weed control at 31 g/ha: 31 g ai/ha, 100 complete control; for pest or weed control at 62 g/ha: 62 g ai/ha; for pest or weed control at 125 g/ha: 125 g ai/ha
How it was run: (§2)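 Seeds were sown and sprayed preemergence, while plants at 2 to 18 cm (1- to 4-leaf stage) got postemergence sprays. Compounds were formulated in a non-phytotoxic solvent mixture with surfactant. After 13 to 15 days in a greenhouse, injury was rated visually against untreated controls, 0 (no effect) to 100 (complete control).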

[12] = test system: surinam grass (Brachiaria decumbens); experiment: Test B pre-/postemergence plant response; settings: Urochloa decumbens, read-out: Plant response rating, Surinam Grass; for pest or weed control at 16 g/ha: 16 g ai/ha; for pest or weed control at 31 g/ha: 31 g ai/ha, 100 complete control; for pest or weed control at 62 g/ha: 62 g ai/ha; for pest or weed control at 125 g/ha: 125 g ai/ha
How it was run: as §2

[13] = Postemergence, 8 g ai/ha, scale 0 to 100, 0 no effect, 100 complete control
[14] = Postemergence, 16 g ai/ha, scale 0 to 100, 0 no effect, 100 complete control
[15] = Postemergence, 31 g ai/ha, scale 0 to 100, 0 no effect, 100 complete control
[16] = Postemergence, 62 g ai/ha, scale 0 to 100, 0 no effect, 100 complete control
[17] = Preemergence, 8 g ai/ha, scale 0 to 100 (0 no effect, 100 complete control)
[18] = Preemergence, 16 g ai/ha, scale 0 to 100 (0 no effect, 100 complete control)
[19] = Preemergence, 31 g ai/ha, scale 0 to 100 (0 no effect, 100 complete control)
[20] = Preemergence, 62 g ai/ha, scale 0 to 100, 0 no effect, 100 complete control
[21] = post-emergence, Postemergence, scale 0 to 100
[22] = post-emergence, Postemergence, scale 0 to 100, 0 no effect
[23] = pre-emergence, Preemergence, scale 0 to 100 (0 no effect, 100 complete control)
[24] = pre-emergence, Preemergence, 0 to 100 scale, 0 no effect
[25] = pre-emergence, Preemergence, scale 0 to 100

CCc1cc(-c2ccc(C(F)(F)F)cc2)nn1-c1c(O)cnn(C)c1=O [Compound 11, 4-[5-ethyl-3-[4-(trifluoromethyl)phenyl]-1H-pyrazol-1-yl]-5-hydroxy-2-methyl-3(2H)-pyridazinone]
10: Plant response rating, Pigweed [8, 14] | Plant response rating, Pigweed [8, 15]
90%: pest or weed control at 16 g/ha [11, 23]
70: Plant response rating, Bromegrass, Downy [4, 19] | Plant response rating, Barley, Spring [6, 19]
15: Plant response rating, Canarygrass [3, 17] | Plant response rating, Bluegrass [7, 14] | Plant response rating, Bluegrass [7, 15] | Plant response rating, Pigweed [8, 20]
30: Plant response rating, Barley, Spring [6, 18] | Plant response rating, Bluegrass [7, 20]
75: Plant response rating, Canarygrass [3, 18]
98%: pest or weed control at 31 g/ha [11, 24]
35: Plant response rating, Bromegrass, Downy [4, 17]
80: Plant response rating, Bromegrass, Downy [4, 14] | Plant response rating, Barley, Spring [6, 13]
25: Plant response rating, Mustard, Wild [9, 14] | Plant response rating, Mustard, Wild [9, 15]
20: Plant response rating, Wheat, Winter [2, 17] | Plant response rating, Barley, Spring [6, 17] | Plant response rating, Bluegrass [7, 16] | Plant response rating, Bluegrass [7, 18] | Plant response rating, Pigweed [8, 16]
100: Plant response rating, Blackgrass [1, 13] | Plant response rating, Blackgrass [1, 14] | Plant response rating, Blackgrass [1, 15] | Plant response rating, Blackgrass [1, 16] | Plant response rating, Blackgrass [1, 20] | Plant response rating, Wheat, Winter [2, 14] | Plant response rating, Wheat, Winter [2, 15] | Plant response rating, Wheat, Winter [2, 16] | Plant response rating, Wheat, Winter [2, 19] | Plant response rating, Wheat, Winter [2, 20] | Plant response rating, Canarygrass [3, 14] | Plant response rating, Canarygrass [3, 15] | Plant response rating, Canarygrass [3, 16] | Plant response rating, Canarygrass [3, 20] | Plant response rating, Bromegrass, Downy [4, 20] | Plant response rating, Foxtail, Green [5, 15] | Plant response rating, Foxtail, Green [5, 16] | Plant response rating, Foxtail, Green [5, 17] | Plant response rating, Foxtail, Green [5, 18] | Plant response rating, Foxtail, Green [5, 19] | Plant response rating, Foxtail, Green [5, 20] | Plant response rating, Oat, Wild (wild oat (Avena fatua); [13]) | Plant response rating, Oat, Wild (wild oat (Avena fatua); [14]) | Plant response rating, Oat, Wild (wild oat (Avena fatua); [15]) | Plant response rating, Oat, Wild (wild oat (Avena fatua); [16]) | Plant response rating, Oat, Wild (wild oat (Avena fatua); [20]) | Plant response rating, Barley, Spring [6, 20] | Plant response rating, Windgrass [10, 17] | Plant response rating, Windgrass [10, 18] | Plant response rating, Windgrass [10, 19] | Plant response rating, Windgrass [10, 20]
98: Plant response rating, Canarygrass [3, 19] | Plant response rating, Bromegrass, Downy [4, 15] | Plant response rating, Bromegrass, Downy [4, 16] | Plant response rating, Foxtail, Green [5, 14] | Plant response rating, Oat, Wild (wild oat (Avena fatua); [17]) | Plant response rating, Oat, Wild (wild oat (Avena fatua); [18]) | Plant response rating, Oat, Wild (wild oat (Avena fatua); [19]) | Plant response rating, Barley, Spring [6, 16]
85: Plant response rating, Blackgrass [1, 17]
65: Plant response rating, Canarygrass [3, 13] | Plant response rating, Bromegrass, Downy [4, 18]
0: Plant response rating, Bluegrass [7, 13] | Plant response rating, Bluegrass [7, 17] | Plant response rating, Pigweed [8, 13] | Plant response rating, Pigweed [8, 17] | Plant response rating, Pigweed [8, 18] | Plant response rating, Pigweed [8, 19] | Plant response rating, Mustard, Wild [9, 13] | Plant response rating, Mustard, Wild [9, 17] | Plant response rating, Mustard, Wild [9, 18] | Plant response rating, Mustard, Wild [9, 19] | Plant response rating, Mustard, Wild [9, 20]
100%: pest or weed control at 16 g/ha [11, 21] | pest or weed control at 31 g/ha [11, 22] | pest or weed control at 62 g/ha [11, 21] | pest or weed control at 125 g/ha [11, 21] | pest or weed control at 62 g/ha [11, 25] | pest or weed control at 125 g/ha [11, 25] | pest or weed control at 16 g/ha [12, 21] | pest or weed control at 31 g/ha [12, 22] | pest or weed control at 62 g/ha [12, 21] | pest or weed control at 125 g/ha [12, 21] | pest or weed control at 16 g/ha [12, 23] | pest or weed control at 31 g/ha [12, 24] | pest or weed control at 62 g/ha [12, 25] | pest or weed control at 125 g/ha [12, 25]
40: Plant response rating, Wheat, Winter [2, 18] | Plant response rating, Mustard, Wild [9, 16]
95: Plant response rating, Foxtail, Green [5, 13] | Plant response rating, Barley, Spring [6, 14] | Plant response rating, Barley, Spring [6, 15] | Plant response rating, Windgrass [10, 13] | Plant response rating, Windgrass [10, 14] | Plant response rating, Windgrass [10, 15] | Plant response rating, Windgrass [10, 16]
50: Plant response rating, Bromegrass, Downy [4, 13]
90: Plant response rating, Blackgrass [1, 18] | Plant response rating, Blackgrass [1, 19] | Plant response rating, Wheat, Winter [2, 13]
